Source: article PMC8406298, “Discovery of Fungus-Specific Targets and Inhibitors Using Chemical Phenotyping of Pathogenic Spore Germination” (mBio, 2021)

Columns and labels:
[1] = system: Cryptococcus spores harboring CNK01510-NL fusion; assay: Nanoluciferase germination screen (HTS); format: cell-based, Cryptococcus neoformans serotype D (deneoformans)
Excerpt: To identify potential inhibitors of spore germination, a nanoluciferase (NL)-based high-throughput screening (HTS) assay was developed, and compounds from three libraries of structurally diverse, drug-like small molecules (LifeChem 1 to 3) were screened (see Fig. S1 in the supplemental material). For the assay, a previously identified protein (CNK01510) was fused to the nanoluciferase protein (Promega) and introduced into its endogenous locus in the Cryptococcus genome ([14]). Strains harboring the integrated NL protein fusion were crossed under sexual development conditions to produce spores. Spores from the NL strains yielded very little NL enzyme activity; however, yeast from those strains produced a robust NL signal. Most importantly, the amount of NL signal correlated with the germination state. As spores germinated into yeast, the levels of NL signal increased, resulting in a robust signal over baseline at the end of germination (∼14-fold) (Fig. S1). […] Secondary screens were performed on these hits to determine effects on yeast replication, cytotoxicity against mammalian fibroblasts, and direct inhibition of the NL enzyme (see Data Set S1).
Screening of the LifeChem libraries (Life Chemicals) was carried out with the assistance of the University of Wisconsin—Madison (UW-Madison) small-molecule screening facility. All NL screening was performed as described previously ([7]). […]

Cryptococcus spores [2] = assay: Quantitative germination assay (QGA), automated microscopy of spore germination; format: cell-based, Cryptococcus neoformans serotype D (deneoformans); details: for germination inhibition phenotype (chemical phenotype) in QGA: at phenotypic concentration
Method: In this automated microscopy-based assay, germination progression of spores is monitored as a function of changes in cell morphology over time (spores are small and oval; yeast are large and circular). Individual spores in a population (∼1 × 10^4 per sample) are measured to determine size (area) and shape (aspect ratio) from the onset of germination, and the data are collected for each cell over the time of germination (Fig. 1A).
Germination assays were modified from those described by Barkal et al. to introduce automation, increase throughput, and refine assay consistency ([12]). Briefly, 384-well plates (Thermo Scientific 142762) were loaded with 10^5 spores per well, and at 0 h, synthetic medium plus 2% dextrose (SD medium) containing the compounds of interest was added to the sample (final volume of 40 μl). All compounds were tested initially at 80 μM; however, concentrations were changed on a case-by-case basis for subsequent experiments. All assays and controls were performed with a final concentration of 0.8% DMSO (the compound solvent) unless specified otherwise. Spores were germinated at 30°C in a humidified chamber, and the same ∼5 × 10^3 cells were monitored every 2 h for 16 h. Imaging was performed on a Ti2 Nikon microscope, and each condition was visualized in a minimum of two individual wells with three fields of view acquired from each well. All images were analyzed as described previously based on cell shape and size using ImageJ. The population ratios of spores, intermediates, and yeast were determined. Error bars in plots are based on the variation among all fields of view acquired. Level of germination was determined by quantifying the decrease in the proportion of spores in a population, and rates were quantified by determining the change in this proportion over time. For all two-dimensional histograms, the x axis represents area from 0 μm^2 to 25 μm^2, and the y axis represents the aspect ratio from 0.4 to 1.
Cycloheximide (0.078 μM to 80 μM) (Dot Scientific, Inc. DSC81040-1), G418 (1.6 mM) (Fisher Scientific AAJ6267106), and puromycin (20 mM) (Dot Scientific, Inc. DSP33020-0.025) were tested with no DMSO (all were water soluble), whereas anisomycin (62.5 μM) (Sigma-Aldrich A9789-5MG) was tested in 2.5% DMSO.
Furcarbanil (80 μM) (Sigma-Aldrich T313122), rotenone (10 μM) (Fisher Scientific 501687383), and antimycin A (2.5 μM) (Santa Cruz Biotechnology, Inc. sc-202467A) were all tested in 0.8% DMSO, and TTFA (200 μM) (Sigma-Aldrich 88300-5G) was tested in 3% DMSO.

[3] = system: Cryptococcus yeast (JEC21); assay: Oxygen consumption rate experiments (Seahorse XFe96); format: cell-based, Cryptococcus neoformans serotype D (deneoformans); details: 10 μM inhibitor injected after 20 mM glucose
Method: Oxygen consumption experiments were performed on a Seahorse Biosciences XFe96 extracellular flux analyzer, and the assays were modified from those described by Lev et al. 2020 ([28]). Briefly, cartridges were hydrated overnight in Agilent Seahorse XF calibrant. JEC21 yeast were grown overnight in YPD, washed with double-distilled water (ddH2O) and resuspended to an OD600 of 0.08 in Seahorse XF Dulbecco’s modified Eagle medium (DMEM) at pH 7.4 (Agilent 103575-100). Cells (180 μl) were loaded into each well with the exception of blank wells, which were filled with XF DMEM. Each injection solution was 10× the final volume in XF DMEM. The assay was carried out at 30°C with injections occurring every 60 min. OCR was read every 6 min during each hour interval, with 3 min of mixing and 3 min of measuring. The following final concentrations were achieved after each injection: (a) 20 mM dextrose, (b) 10 μM chosen inhibitor (furcarbanil, B2, or B5) and 1% DMSO, (c) 50 μM rotenone, 50 μM antimycin A, and 1% DMSO, and (d) 100 mM 2-deoxy-D-glucose (2-DG; Sigma-Aldrich D8375-1G). Each condition was tested in triplicates.

Candida albicans = system: Candida albicans; design: method as in PMID 16876761; details: cited from earlier work
[4] = system: normal human dermal fibroblasts (NHDF) cells; assay: Fibroblast cytotoxicity (CellTiter-Glo); format: cell-based; details: at concentrations as high as 80 μM; dose-response 0.5 to 80 μM
Summary of the method: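 Normal human dermal fibroblasts, 1 × 10^3 per well, exposed to compounds at 10 μM for 72 h at 37°C. Viability read as ATP-dependent CellTiter-Glo luminescence. Dose-response runs titrated compounds from 80 μM to 0.5 μM in duplicate.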

Cryptococcus spores [5] = system: Cryptococcus spores; design: method as in PMID 31570398; details: previous study; cited from earlier work

SMILES	germination inhibition phenotype (chemical phenotype) in QGA (Cryptococcus spores [2])	effect on oxygen consumption rate (OCR) [3]	phenotypic concentration (concentration showing the germination phenotype in QGA) (Cryptococcus spores [2])	also measured
C[C@@H]1C[C@@H]([C@H](O)CC2CC(=O)NC(=O)C2)C(=O)[C@@H](C)C1 [cycloheximide, reference compound]	slow-down			NL signal in germination screen [1]: low levels of NL signal; inhibition of germination (changes in size or shape) (Cryptococcus spores [2]; 10 µM): full inhibition of germination; IC50 (Cryptococcus spores [2]; Cryptococcus, 16 h, read-out: 50% inhibitory concentration (IC50) of spore germination): 1700 nM
Cc1cc(C(=O)N2CCC(Oc3ncccc3Cl)CC2)c(C)o1 [B5]		small decrease in OCR that was not recovered from		
Cc1cc(C(=O)Nc2ccccc2)c(C)o1 [furcarbanil, reference compound]	asynchrony	initial substantial decrease in OCR followed by recovery	80 µM	
O=C(CC(=O)C(F)(F)F)c1cccs1 [TTFA, thenoyltrifluoroacetone, reference compound]	asynchrony		200 µM	effect on hyphal formation (Candida albicans): prevent hyphal formation
Cc1cc(C(=O)N(CCc2cccs2)C2CC2)c(C)o1 [B2]		substantial decrease in OCR that was not recovered from		inhibition at 5 µM (Cryptococcus spores [2]; Cryptococcus, at 5 μM): > 75%; cytotoxicity against fibroblasts [4]: ≤ 25%
CCN(CC)C(=S)SSC(=S)N(CC)CC [disulfiram]				germination inhibition phenotype in QGA (Cryptococcus spores [5]): slow-end
